# Source: a melting point compilation (Tetko et al.; mined from patent text by program, amines drawn as free bases though some values may be those of a salt)
row,Compound,melting point [°C]
1,Cc1cc(C)n(C)c1C(=O)c1cccnc1,195 to 197
2,CCCCCCCCCCCCc1c[nH]c(C=O)c1,64 to 65
3,CC(C)C(=O)Oc1ccc2c(c1Cl)Sc1ccccc1N2C,147
4,CCCCCCc1cc(SC)ccc1OC(=O)c1ccccc1,57 to 58
5,CC#CCOc1ccc(C(=O)NC[C@@H](C(=O)NO)N2CCCCC2)cc1,144
6,COc1ccc(-n2c(-c3sc(Nc4ccccc4)nc3C)nc3ccccc3c2=O)cc1,265 to 266
7,CN1CC[C@]2(c3ccccc3)CCCC[C@H]2C1 (relative stereo),72 to 73
8,C=C1CCCC2CCC3C(CCC4(C)C3C(C#N)C35OCCOC43OCCO5)C12C (stereo not drawn),229
9,O=C(Nc1ccc(C(=O)N2Cc3ccccc3Cc3ccccc32)cc1)c1ccc(C(F)(F)F)cc1,205 to 207
10,O=C1CSc2nc(C34CC5CC(CC(C5)C3)C4)cn21,130 to 132
11,COc1cc(OC)cc(-c2nnc(-c3cc(OC)cc(OC)c3)o2)c1,167 to 170
12,"CC(CN(C)C)C(C#N)(c1ccccc1)c1ccccc1 (single isomer, unassigned; (-))",102 to 103
13,Clc1cc(Cl)cc(-c2n[nH]cc2I)c1,170
14,O=C(CO)Nc1cc(-c2ccncc2)c[nH]c1=O,271 to 274
15,CS(=O)c1ccc(-c2oncc2CCCO)cc1 (stereo not drawn),73 to 74
16,CCCCCCCCCCCCCCCCSCC(CNS(=O)(=O)CCCCl)n1nnnc1C (stereo not drawn),62 to 62.5
17,CC(=O)Oc1cc(-c2nc3ccccc3[nH]c2=O)cc([N+](=O)[O-])c1OC(C)=O,241 to 243
18,O=C(NCCCCCCOC(=O)N1CCC(OC(=O)N2CCCCC2)CC1)Oc1ccc(Oc2ccccc2)cc1,56 to 61
19,O=C(O)c1cccc(COc2ccccc2Cl)c1OCc1ccccc1Cl,96 to 98
20,COc1cc(OC)nc(NC(=O)NS(=O)(=O)Cc2ccccc2-c2nnc(SC)o2)n1,174 to 177
21,CCc1nc2c(N)nc3ccccc3c2n1CCOCCNC(=O)c1ccccc1,188 to 191
22,COc1ccc(-c2cccnc2)cc1,62 to 63
23,COC(=O)c1ccc(C(=O)Nc2ccc3ccc(Cl)nc3n2)cc1,275
24,CN(C)c1ccc(C(=O)N2CCC(Nc3nc(Nc4cccc(C(F)(F)F)c4)nc(OCC(F)(F)F)n3)CC2)cc1,123 to 125

row,Compound,melting point [°C]
1,Cc1c(F)cccc1NC(=O)c1ccccc1CN1C(=O)C2(COc3cc4c(cc32)CCO4)c2ccccc21 (stereo not drawn),> 230
2,CC(=O)OC1CC2(C)C(CCC2(Sc2ccccc2)Sc2ccccc2)C2CCC3=CC(=O)C=CC3(C)C12F (stereo not drawn),180 to 184
3,COc1ccc2cc([C@H](C)C(=O)OCC(=O)OC(C)(C)C)ccc2c1,85 to 86
4,CCCCCCCCCCCCCCCCOc1ccccc1-c1ccccc1,35 to 37
5,CCCCCCCCCCCCCCCCCCNP1OCC2(CO1)COP(NCCCCCCCCCCCCCCCCCC)OC2 (stereo not drawn),67 to 70
6,O=[N+]([O-])c1cc(S(=O)(=O)NC(CO)CO)sc1Cl,132
7,O=C1NC(=O)C2(CC(Br)c3ccccc32)N1 (stereo not drawn),58 to 65
8,CC(C)(C)OC(=O)Nc1ccc(C#Cc2cccc(C#Cc3ccc(NC(=O)OC(C)(C)C)cc3)c2C(=O)O)cc1,118
9,O=[N+]([O-])c1cccc(/C=C/c2csc(C3CCC3)n2)c1,112 to 115
10,N=C(Nc1ccc(Cl)cc1)Nc1ncccc1OCc1c(Cl)cccc1Cl,192 to 195
11,O=C1COc2ccccc2CN1Cc1ccccc1,95 to 97
12,O=C1CC(SCc2ccccc2)N1 (stereo not drawn),50 to 51
13,O=C1CCC(O)(c2ccc3c(c2)OCO3)CC1,162 to 164
14,C#CCS(=O)(=O)c1ccc(NC(C)=O)cc1,175 to 179
15,O=Cc1ccc(OCCNc2nc3ccccc3o2)cc1,103 to 106
16,Nc1nonc1NCCCOc1cccc(CN2CCCCC2)c1,87 to 88
17,CC(C)(C)N(C(=O)COc1nnc(C(F)(F)F)s1)c1ccc(Cl)cc1,82
18,CCOC(=O)C1=C(O)c2cc3cc(OC)ccc3n2CC1,157 to 160
19,CC1CN(c2ncc(C(=O)N(C)c3cccc(C(F)(F)F)c3)c(N)n2)C(=O)N1 (stereo not drawn),237 to 238
20,O=CNc1csc(Br)n1,167
21,COc1cc(C(=O)NNC(=O)c2occ(-c3ccccc3)c2-c2ccccc2)ccc1OCc1ccccc1,203 to 204
22,CCCCc1oc2ccc(NS(C)(=O)=O)cc2c1C(=O)c1ccc(OCCN(CCCC)CCCC)cc1,86
23,Cn1cc(C(O)(c2ccc3c(cnn3C(=O)OC3CCC3)c2)C(F)(F)F)c2ccccc21 (stereo not drawn),82 to 84
24,Cc1cc2c(s1)SCC1CC(=O)N(c3ccc(Cl)cc3)N=C21 (stereo not drawn),142 to 144
